Data taken from ChEMBL document CHEMBL3885861, “Open TG-GATES”.

Species: Rattus norvegicus
Assay: Open TG-GATES - Regimen: Single
Format: toxicity, organism-based, Sprague-Dawley
Set-up: regimen Single, gender Male, age 6 weeks
Conditions: in vivo, po, 0 mg/kg, route gavage, dose level Control; for APTT / Bas / Eos / Fbg / Hb / Ht / Lym / MCH / MCHC / MCV / Mono / Neu / Plat / RBC / Ret / WBC: tissue Blood; for KIDNEY_L / KIDNEY_R / KIDNEY_TOTAL: tissue Kidney; for LIVER: tissue Liver; for ALP / ALT / AST / BUN / CRE / Ca / Cl / DBIL / GLC / IP / K / LDH / Na / PL / RALB / TBIL / TC / TG / TP / gamma-GTP: tissue Plasma

CC(=O)Oc1ccccc1C(=O)O [ASPIRIN]
TERMINAL_BW (3 h): 221 g
APTT (3 h): 17.5 s
Bas (3 h): 0.2%
Eos (3 h): 1.2%
Fbg (3 h): 226.6 mg/dL
Hb (3 h): 13.4 g/dL
Ht (3 h): 37.1%
Lym (3 h): 75.4%
MCH (3 h): 22 pg
MCHC (3 h): 36.1%
MCV (3 h): 60.8 fL
Mono (3 h): 2.2%
Neu (3 h): 20%
Plat (3 h): 118.6 x10_4/uL
RBC (3 h): 611.4 x10_4/ul
Ret (3 h): 8%
WBC (3 h): 87.8 x10_2/uL
KIDNEY_L (3 h): 1 g
KIDNEY_R (3 h): 1 g
KIDNEY_TOTAL (3 h): 2 g
LIVER (3 h): 9.9 g
ALP (3 h): 895.2 IU/L
ALT (3 h): 34.8 IU/L
AST (3 h): 72.4 IU/L
BUN (3 h): 9.8 mg/dL
CRE (3 h): 0.4 mg/dL
Ca (3 h): 10.7 mg/dL
Cl (3 h): 103.8 meq/L
DBIL (3 h): 0.066 mg/dL
GLC (3 h): 198.2 mg/dL
IP (3 h): 9.6 mg/dL
K (3 h): 3.9 meq/L
LDH (3 h): 186.2 IU/L
Na (3 h): 142.4 meq/L
PL (3 h): 138.4 mg/dL
RALB (3 h): 3.4 g/dL
TBIL (3 h): 0.1 mg/dL
TC (3 h): 77 mg/dL
TG (3 h): 48.8 mg/dL
TP (3 h): 5.5 g/dL
gamma-GTP (3 h): 1.2 IU/L
TERMINAL_BW (6 h): 217.3 g
APTT (6 h): 17.7 s
Bas (6 h): 0%
Eos (6 h): 0.8%
Fbg (6 h): 235 mg/dL
Hb (6 h): 13.9 g/dL
Ht (6 h): 38.3%
Lym (6 h): 77.2%
MCH (6 h): 22 pg
MCHC (6 h): 36.3%
MCV (6 h): 60.5 fL
Mono (6 h): 2.4%
Neu (6 h): 18.4%
Plat (6 h): 131.2 x10_4/uL
RBC (6 h): 632.8 x10_4/ul
Ret (6 h): 7.8%
WBC (6 h): 104.9 x10_2/uL
KIDNEY_L (6 h): 0.9 g
KIDNEY_R (6 h): 0.9 g
KIDNEY_TOTAL (6 h): 1.9 g
LIVER (6 h): 9 g
ALP (6 h): 815 IU/L
ALT (6 h): 32 IU/L
AST (6 h): 68.4 IU/L
BUN (6 h): 9 mg/dL
CRE (6 h): 0.4 mg/dL
Ca (6 h): 10.6 mg/dL
Cl (6 h): 103.2 meq/L
DBIL (6 h): 0.07 mg/dL
GLC (6 h): 185.8 mg/dL
IP (6 h): 9.5 mg/dL
K (6 h): 3.8 meq/L
LDH (6 h): 208.8 IU/L
Na (6 h): 141.2 meq/L
PL (6 h): 139.2 mg/dL
RALB (6 h): 3.4 g/dL
TBIL (6 h): 0.1 mg/dL
TC (6 h): 80.4 mg/dL
TG (6 h): 62.8 mg/dL
TP (6 h): 5.5 g/dL
gamma-GTP (6 h): 1 IU/L
TERMINAL_BW (9 h): 214.9 g
APTT (9 h): 17.3 s
Bas (9 h): 0%
Eos (9 h): 0.8%
Fbg (9 h): 224 mg/dL
Hb (9 h): 14 g/dL
Ht (9 h): 38.7%
Lym (9 h): 80.2%
MCH (9 h): 22.2 pg
MCHC (9 h): 36.3%
MCV (9 h): 61.1 fL
Mono (9 h): 2.4%
Neu (9 h): 15.2%
Plat (9 h): 121.8 x10_4/uL
RBC (9 h): 632.8 x10_4/ul
Ret (9 h): 8%
WBC (9 h): 88.9 x10_2/uL
KIDNEY_L (9 h): 0.9 g
KIDNEY_R (9 h): 0.9 g
KIDNEY_TOTAL (9 h): 1.8 g
LIVER (9 h): 8.6 g
ALP (9 h): 795.2 IU/L
ALT (9 h): 31.2 IU/L
AST (9 h): 64.8 IU/L
BUN (9 h): 9.4 mg/dL
CRE (9 h): 0.4 mg/dL
Ca (9 h): 10.4 mg/dL
Cl (9 h): 104 meq/L
DBIL (9 h): 0.066 mg/dL
GLC (9 h): 206.6 mg/dL
IP (9 h): 10 mg/dL
K (9 h): 3.8 meq/L
LDH (9 h): 205.6 IU/L
Na (9 h): 141.4 meq/L
PL (9 h): 128.6 mg/dL
RALB (9 h): 3.4 g/dL
TBIL (9 h): 0.1 mg/dL
TC (9 h): 69.2 mg/dL
TG (9 h): 46.2 mg/dL
TP (9 h): 5.6 g/dL
gamma-GTP (9 h): 1.2 IU/L
TERMINAL_BW (24 h): 234.6 g
APTT (24 h): 18.4 s
Bas (24 h): 0.8%
Eos (24 h): 1%
Fbg (24 h): 222.8 mg/dL
Hb (24 h): 13.8 g/dL
Ht (24 h): 37.7%
Lym (24 h): 77.2%
MCH (24 h): 22.6 pg
MCHC (24 h): 36.6%
MCV (24 h): 61.7 fL
Mono (24 h): 2.8%
Neu (24 h): 17.8%
Plat (24 h): 132 x10_4/uL
RBC (24 h): 611.8 x10_4/ul
Ret (24 h): 7.1%
WBC (24 h): 109.6 x10_2/uL
KIDNEY_L (24 h): 1 g
KIDNEY_R (24 h): 1 g
KIDNEY_TOTAL (24 h): 2 g
ALP (24 h): 1023.4 IU/L
ALT (24 h): 39 IU/L
AST (24 h): 72.4 IU/L
BUN (24 h): 15.8 mg/dL
CRE (24 h): 0.4 mg/dL
Ca (24 h): 10.6 mg/dL
Cl (24 h): 103.6 meq/L
DBIL (24 h): 0.062 mg/dL
GLC (24 h): 204.2 mg/dL
IP (24 h): 7.8 mg/dL
K (24 h): 3.9 meq/L
LDH (24 h): 207.2 IU/L
Na (24 h): 141.2 meq/L
PL (24 h): 153.4 mg/dL
RALB (24 h): 3.5 g/dL
TBIL (24 h): 0.1 mg/dL
TC (24 h): 74 mg/dL
TG (24 h): 124.4 mg/dL
TP (24 h): 5.6 g/dL
gamma-GTP (24 h): 1.2 IU/L
